The values that follow are results of earlier work, collected in paper PMC8504815 (Clinical and Translational Science, 2021).

The test system of this data set is basophils. The note with it: doses >=200 mg; not sustained beyond; cited from earlier work.

For `C[C@H]1CN(C2COC2)CCN1c1ccc(Nc2cc(-c3ccnc(N4CCn5c(cc6c5CC(C)(C)C6)C4=O)c3CO)cn(C)c2=O)nc1` [fenebrutinib], the “duration of more than 90% CD63 inhibition” value is ≤ 8 h.
